# Like-named read-outs stand apart in the source and are kept apart here.
# Assays:
# [1] = test system: C. difficile 630 (CD630, ATCC BAA-1382); assay: MIC by broth microdilution against C. difficile 630; type: cell-based, Clostridium difficile; conditions: 20-24 h, 37° C.; for MIC C. difficile 630: Table 1, strain 630
# [2] = test system: C. difficile strains 630 (CD630) and 4118 (CD4118); assay: MIC / growth inhibition against C. difficile, covering both strains; type: cell-based, Clostridium difficile
# [3] = test system: C. difficile 4118 (CD4118, ATCC BAA-1870, BI/NAP1/027); assay: MIC by broth microdilution against C. difficile 4118; type: cell-based, Clostridium difficile; conditions: for MIC C. difficile 4118: Table 1, strain 4118; for MIC: Clostridioides difficile, ATCCBAA1870
# P. aeruginosa PAO1 = assay: MIC against aerobic bacteria; type: cell-based, Pseudomonas aeruginosa; conditions: for MIC P. aeruginosa PAO1: aerobic
# S. aureus RN4220 = assay: MIC against aerobic bacteria; type: cell-based; conditions: for MIC S. aureus RN4220: aerobic
# [4] = test system: B. thetaiotaomicron ATCC 29148; assay: microbe, parasite or virus in culture; type: cell-based; conditions: for MIC B. thetaiotaomicron ATCC 29148: anaerobic
# S. epidermidis 1457 = assay: MIC against aerobic bacteria; type: cell-based; conditions: for MIC S. epidermidis 1457: aerobic
# B. subtilis ATCC 6051 = assay: MIC against aerobic bacteria; type: cell-based, Bacillus subtilis; conditions: for MIC B. subtilis ATCC 6051: aerobic
# [5] = test system: C. clostridioforme ATCC 25537; assay: MIC against anaerobic bacteria; type: cell-based, Clostridium clostridioforme; conditions: for MIC C. clostridioforme ATCC 25537: anaerobic
# P. nigrescens ATCC 33563 = assay: MIC against anaerobic bacteria; type: cell-based, Prevotella nigrescens; conditions: for MIC P. nigrescens ATCC 33563: anaerobic
# P. distasonis ATCC 8503 = assay: MIC against anaerobic bacteria; type: cell-based, Parabacteroides distasonis; conditions: for MIC P. distasonis ATCC 8503: anaerobic
# A. baumannii M2 = assay: MIC against aerobic bacteria; type: cell-based; conditions: for MIC A. baumannii M2: aerobic
# C. sporogenes ATCC 15579 = assay: microbe, parasite or virus in culture; type: cell-based, Clostridium sporogenes
# [6] = test system: Clostridium difficile strain 4118; assay: Minimum bactericidal concentration (MBC), logarithmic- and stationary-phase cells; type: cell-based; conditions: 3-log reduction of inoculum; for MBC: Clostridioides difficile
# Protocol: The MBClog values of the protonophores were determined to be 0.25-2 μg/mL (˜4 to 8-fold greater than their respective MIC values).
# Clostridium difficile strain 4118 was grown to OD600˜0.4-0.5 (logarithmic phase) or for 24 h (stationary phase), and thereafter added to two-fold serial dilutions of test compounds. Cultures were incubated for 20-24 h at 37° C., and then viable counts were enumerated on BHIS agar plates. […] MBC measurements were performed in duplicate.
# [7] = test system: panel of aerobic and anaerobic organisms; type: cell-based
compound,measurement,setting,value
O=C(Nc1ccccc1Cl)c1cc(I)cc(I)c1O [Compound 7c],MIC C. difficile 630,[1],8 µg/mL
same,MIC against C. difficile,[2]; one statement covering CD630 and CD4118,8 µg/mL
same,MIC C. difficile 4118,"[3]; 20-24 h, 37° C.",8 µg/mL
O=C(Nc1ccc(Oc2ccccc2)cc1)c1cc(I)cc(I)c1O [Compound 5a],MIC C. difficile 630,[1],0.5 µg/mL
same,growth inhibitory activity against CD630 and CD4118 (in words),[2],high in vitro potency
same,MIC C. difficile 4118,"[3]; 20-24 h, 37° C.",1 µg/mL
O=C(Nc1ccc(Cl)cc1)c1cc(I)cc(I)c1O [Compound 7b],MIC P. aeruginosa PAO1,P. aeruginosa PAO1,>32 µg/mL
same,MIC S. aureus RN4220,S. aureus RN4220,0.06 µg/mL
same,MIC C. difficile 630,[1],0.25 µg/mL
same,MIC B. thetaiotaomicron ATCC 29148,[4],>32 µg/mL
same,MIC C. difficile 4118,"[3]; 20-24 h, 37° C.",0.5 µg/mL
same,MIC S. epidermidis 1457,S. epidermidis 1457,≤0.03 µg/mL
same,MIC B. subtilis ATCC 6051,B. subtilis ATCC 6051,0.06 µg/mL
same,MIC C. clostridioforme ATCC 25537,[5],16 µg/mL
same,MIC P. nigrescens ATCC 33563,P. nigrescens ATCC 33563,4 µg/mL
same,MIC P. distasonis ATCC 8503,P. distasonis ATCC 8503,8 µg/mL
same,MIC A. baumannii M2,A. baumannii M2,32 µg/mL
same,MIC C. sporogenes ATCC 15579,C. sporogenes ATCC 15579,16 µg/mL
O=C(Nc1ccc(Oc2ccccc2)cc1)c1cc(I)cc(I)c1 [Compound 5c],MIC C. difficile 630,[1],>32 µg/mL
same,growth inhibitory activity against CD630 and CD4118 (in words),[2],inactive
same,MIC C. difficile 4118,"[3]; 20-24 h, 37° C.",>32 µg/mL
"CN[C@H](CC(C)C)C(=O)N[C@H]1C(=O)N[C@@H](CC(N)=O)C(=O)N[C@H]2C(=O)N[C@H]3C(=O)N[C@H](C(=O)N[C@H](C(=O)O)c4cc(O)cc(O)c4-c4cc3ccc4O)[C@H](O)c3ccc(c(Cl)c3)Oc3cc2cc(c3O[C@@H]2O[C@H](CO)[C@@H](O)[C@H](O)[C@H]2O[C@H]2C[C@](C)(N)[C@H](O)[C@H](C)O2)Oc2ccc(cc2Cl)[C@H]1O [Vancomycin, vancomycin, reference compound]",MIC,"P. aeruginosa PAO1; Pseudomonas aeruginosa, PAO1, read-out: MIC P. aeruginosa PAO1",> 32 µg/mL
same,MIC,"S. aureus RN4220; Staphylococcus aureus, RN4220, read-out: MIC S. aureus RN4220",1 µg/mL
same,MIC,"[1]; Clostridioides difficile, ATCCBAA1382",1 µg/mL
same,MIC,"[2]; Clostridioides difficile, read-out: MIC against C. difficile",1 to 2 µg/mL
same,MIC,"[4]; Bacteroides thetaiotaomicron, ATCC29148, read-out: MIC B. thetaiotaomicron ATCC 29148",> 32 µg/mL
same,MBC,"[6]; logarithmic-phase cells of strain 4118, read-out: MBClog",8 µg/mL
same,MBC,"[6]; stationary-phase cells of strain 4118, read-out: MBCstat",> 32 µg/mL
same,MBCstat,[6]; stationary-phase cells of strain 4118,>32 µg/mL
same,MIC,[3],2 µg/mL
same,MIC,"[3]; 20-24 h, 37° C., read-out: MIC C. difficile 4118",2 µg/mL
same,MIC,"S. epidermidis 1457; Staphylococcus epidermidis, 1457, read-out: MIC S. epidermidis 1457",2 µg/mL
same,MIC,"B. subtilis ATCC 6051; Bacillus subtilis, ATCC6051, read-out: MIC B. subtilis ATCC 6051",0.13 µg/mL
same,antibacterial spectrum (in words),[7],Gram-positive organisms
same,MIC,"[5]; Clostridium, ATCC25537, read-out: MIC C. clostridioforme ATCC 25537",0.5 µg/mL
same,MIC,"P. nigrescens ATCC 33563; Prevotella nigrescens, ATCC33563, read-out: MIC P. nigrescens ATCC 33563",> 32 µg/mL
same,MIC,"P. distasonis ATCC 8503; Parabacteroides distasonis, ATCC8503, read-out: MIC P. distasonis ATCC 8503",> 32 µg/mL
same,MIC,"A. baumannii M2; Acinetobacter baumannii, M2, read-out: MIC A. baumannii M2",> 32 µg/mL
same,MIC,"C. sporogenes ATCC 15579; Clostridium sporogenes, ATCC15579, read-out: MIC C. sporogenes ATCC 15579",2 µg/mL
COc1c(I)cc(I)cc1C(=O)Nc1ccc(Oc2ccc(Cl)cc2)cc1 [Compound 5h],MIC C. difficile 630,[1],>32 µg/mL
same,growth inhibitory activity against CD630 and CD4118 (in words),[2],inactive
same,MIC C. difficile 4118,"[3]; 20-24 h, 37° C.",>32 µg/mL
O=C(Nc1ccc2ccccc2c1)c1cc(I)cc(I)c1O [Compound 6a],MIC P. aeruginosa PAO1,P. aeruginosa PAO1,>32 µg/mL
same,MIC S. aureus RN4220,S. aureus RN4220,0.25 µg/mL
same,MIC C. difficile 630,[1],0.5 µg/mL
same,growth inhibitory activity against CD630 and CD4118 (in words),[2],high in vitro potency
same,MIC B. thetaiotaomicron ATCC 29148,[4],>32 µg/mL
same,MIC C. difficile 4118,"[3]; 20-24 h, 37° C.",0.5 µg/mL
same,MIC S. epidermidis 1457,S. epidermidis 1457,0.06 µg/mL
same,MIC B. subtilis ATCC 6051,B. subtilis ATCC 6051,0.06 µg/mL
same,MIC C. clostridioforme ATCC 25537,[5],4 µg/mL
same,MIC P. nigrescens ATCC 33563,P. nigrescens ATCC 33563,8 µg/mL
same,MIC P. distasonis ATCC 8503,P. distasonis ATCC 8503,16 µg/mL
same,MIC A. baumannii M2,A. baumannii M2,>32 µg/mL
same,MIC C. sporogenes ATCC 15579,C. sporogenes ATCC 15579,8 µg/mL
COc1c(I)cc(I)cc1C(=O)Nc1ccc(Oc2ccccc2)cc1 [Compound 5b],MIC C. difficile 630,[1],>32 µg/mL
same,growth inhibitory activity against CD630 and CD4118 (in words),[2],inactive
same,MIC C. difficile 4118,"[3]; 20-24 h, 37° C.",>32 µg/mL
Cc1ccc(Oc2ccc(NC(=O)c3cc(I)cc(I)c3O)cc2)cc1 [Compound 5f],MIC C. difficile 630,[1],0.13 µg/mL
same,growth inhibitory activity against CD630 and CD4118 (in words),[2],high in vitro potency
same,MIC C. difficile 4118,"[3]; 20-24 h, 37° C.",0.25 µg/mL
O=C(Nc1ccc(Oc2ccc(F)cc2)cc1)c1cc(I)cc(I)c1O [Compound 5e],MIC C. difficile 630,[1],0.13 µg/mL
same,growth inhibitory activity against CD630 and CD4118 (in words),[2],high in vitro potency
same,MIC C. difficile 4118,"[3]; 20-24 h, 37° C.",0.13 µg/mL
